Marks after values point to notes of the source that are not given here.
Tests used:
[1] = test system: EPG cells; experiment: MTT viability assay, gastric cancer cells; assay type: cell-based, human; conditions: for SI, EPG: CC50 CCD 841 CoTr / CC50 EPG; for CC50: Homo sapiens, MTT, 24 h, read-out: CC50 ± SD, EPG
Experimental: (§1) The cytotoxic effects of ten newly synthesized N-Mannich bases were assessed on the normal human intestinal epithelium (CCD 841 CoTr) and cancer cell lines: gastric cancer (EPG) and four colorectal cancer lines (Caco-2, LoVo, LoVo/Dx, and HT-29). Cell viability was evaluated using the MTT assay in accordance with Annex C of ISO 10993-5 [33].
(§2) The biological activity of the newly synthesized compounds was assessed in the context of anticancer activity. For this purpose, several gastrointestinal cancer lines were selected: gastric cancer (EPG 257, which belongs to the collection of the Laboratory of Cell Culture and Advanced Therapy at the University of Environmental and Life Sciences in Wrocław), and four colorectal cancer cell lines (LoVo, Caco-2, and HT-29) were obtained from the European Collection of Authenticated Cell Cultures (ECACC) and were delivered by Sigma-Aldrich, a certified distributor for the biobank. Additionally, LoVo cells were used to develop a doxorubicin-resistant subline, referred to as LoVo/Dx. Resistance was induced through gradual adaptation to increasing concentrations of doxorubicin, starting from 0.1 µg/mL and incrementally raised to 0.8 µg/mL. After reaching the maximum concentration, the cells were maintained in a medium containing 0.4 µg/mL doxorubicin for a period of three months to stabilize the resistant phenotype. […] The resulting LoVo/Dx subline, resistant to doxorubicin, was cultured in DMEM/F-12 medium and utilized in assays evaluating the effectiveness of novel compounds against multidrug-resistant cancer cells. […] The non-cancerous cell control was normal colonic epithelial cells (CCD 841 CoTr from American Type Culture Collection, (ATCC, Manassas, VA, USA)). Cell cultures were performed under standard conditions (5% CO2, 95% humidity, and 37 °C). Each cell line was cultured in the recommended medium: (1) HT-29 in McCoy’s 5a, (2) Caco-2 in Minimal Essential Medium (MEM, Biological Industries, Beit Haemek, Israel), (3) CCD 841 CoTr in Dulbecco’s Modified Eagle Medium (DMEM, Biological Industries, Beit Haemek, Israel), (4) LoVo in Dulbecco’s Modified Eagle Medium/F-12 (DMEM/F-12; Biological Industries, Beit Haemek, Israel), (5) LoVo/Dx in DMEM/F-12, and (6) EPG in DMEM. Culture media were supplemented with 10% fetal bovine serum (FBS, Sigma-Aldrich, Darmstadt, Germany) and antibiotics (penicillin and streptomycin; Sigma-Aldrich, Darmstadt, Germany). For assays, trypsinized (TrypLE solution, Thermo Fisher Scientific, Waltham, MA, USA) cells were seeded at appropriate densities of 10,000 cells per well for MTT and determination of apoptotic and necrotic cell numbers; 30,000 cells per well for the rhodamine accumulation assay; and 500,000 cells per well for ELISA tests.
(§3) The cytotoxicity of the compounds and drugs used as controls was assessed using the MTT assay. The assay also included a DMSO control. After seeding and allowing the cells to adhere overnight, they were treated with the tested compounds and drugs for another 24 h. After this time, the supernatant was removed, and a 1 mg/mL MTT solution was added for 2 h in 5% CO2, 95% humidity, at 37 °C. The supernatant was then removed, and isopropanol was added to dissolve the purple crystals over 30 min by shaking. Absorbance was measured at 570 nm in a Multiskan GO microplate reader (Thermo Fisher Scientific; Waltham, MA, USA). All reagents used for the assays were purchased from Sigma-Aldrich, Darmstadt, Germany.
(§4) Biological assays were performed in three independent replicates, each involving four samples. ELISA determinations were repeated three times.

[2] = test system: LoVo/Dx cells; experiment: MTT viability assay, doxorubicin-resistant LoVo/Dx; assay type: cell-based, human; conditions: for SI, LoVo/Dx: CC50 CCD 841 CoTr / CC50 LoVo/Dx; for CC50: Homo sapiens, LoVo/DX, MTT, 24 h, read-out: CC50 ± SD, LoVo/Dx
Experimental: as §1, §2, §3, §4

[3] = test system: Caco-2 cells; experiment: MTT viability assay, colorectal cancer cells Caco-2; assay type: cell-based, human; conditions: for SI, Caco-2: CC50 CCD 841 CoTr / CC50 Caco-2; for CC50: Homo sapiens, Caco-2, MTT, 24 h, read-out: CC50 ± SD, Caco-2
Experimental: as §1, §2, §3, §4

[4] = test system: CCD 841 CoTr cells; experiment: MTT viability assay, normal colonic epithelial cells; assay type: cell-based, human; conditions: 24 h, Non-toxic = no toxicity in tested range 1–500 μM
Experimental: as §1, §2, §3, §4

[5] = test system: LoVo cells; experiment: MTT viability assay, colorectal cancer cells LoVo; assay type: cell-based, human; conditions: for SI, LoVo: CC50 CCD 841 CoTr / CC50 LoVo; for CC50: Homo sapiens, LoVo, MTT, 24 h, Non-toxic = no toxicity in tested range 1–500 μM, read-out: CC50 ± SD, LoVo
Experimental: as §1, §2, §3, §4

[6] = test system: HT-29 cells; experiment: MTT viability assay, colorectal cancer cells HT-29; assay type: cell-based, human; conditions: for SI, HT-29: CC50 CCD 841 CoTr / CC50 HT-29; for CC50: Homo sapiens, HT-29, MTT, 24 h, read-out: CC50 ± SD, HT-29
Experimental: as §1, §2, §3, §4

[7] = test system: OVCAR-3 cell line; parameters: method as in PMID 33482607; conditions: cited from earlier work
[8] = MTT viability assay, normal colonic epithelial cells; assay type: cell-based, human; conditions: human, CCD 841 CoTr normal colonic epithelial cells, Non-toxic = no toxicity in tested range 1–500 μM, read-out: CC50 ± SD, CCD 841 CoTr
Experimental: as §1, §2, §3, §4

[9] = test system: p53; experiment: p53 Human ELISA on HT-29 cell lysates; assay type: cell-based; conditions: HT-29, 1 µM, 24 h
Experimental: (§5) To check the effect of compound 6 on the level of p-53 and caspase-3 protein, another test was performed on HT-29 cells, taking doxorubicin as the reference drug.
(§6) To assess the level of caspase-3 and p53 protein, HT-29 cell lysates were used after 24 h of incubation with compounds 5 and 6. The supernatant was collected in the prepared and labeled tubes, the cells from the wells were scraped, and the wells were washed with cold PBS, which was also collected. The tubes were then centrifuged, the supernatant was removed, and the cell pellet was lysed in a cell extraction vessel for 30 min on ice, with […] every 10 min. The lysate was transferred to centrifuge tubes and centrifuged at 13,000 rpm for 10 min at 4 °C. The supernatant was transferred to clean tubes in a microcentrifuge.
(§7) The following kits were used: Human Caspase-3 (active) ELISA Kit (KHO1091) and p53 Human ELISA Kit (BMS256), used following the manufacturer’s instructions. ELISA kits were purchased from Thermo Fisher Scientific (Waltham, MA, USA). The absorbance was measured using a Multiskan GO microplate reader (Thermo Fisher Scientific, Waltham, MA, USA) at wavelengths specific to each kit, as recommended by the manufacturer.

[10] = test system: Caspase-3; experiment: Human Caspase-3 (active) ELISA on HT-29 cell lysates; assay type: cell-based; conditions: HT-29, 1 µM, 24 h
Experimental: as §5, §6, §7

[11] = test system: HepG2 cells; parameters: method as in PMID 36181443; conditions: cited from earlier work
[12] = test system: NUGC cell line; parameters: method as in PMID 25948330; conditions: cited from earlier work

SMILES | SI, EPG [1] | CC50 [1] [µM] | SI, LoVo/Dx [2] | CC50 [2] [µM] | SI, Caco-2 [3] | CC50 [3] [µM] | CC50 ± SD, CCD 841 CoTr [4] | SI, LoVo [5] | CC50 [5] [µM] | SI, HT-29 [6] | CC50 [6] [µM] | IC50 [7] [µM] | CC50 at 24 h [8] [µM] | p53 Conc. ± SD [9] [U/mL] | p53 Fold Change ([9]; versus untreated control) | Caspase-3 Conc. ± SD [10] [ng/mL] | Caspase-3 Fold Change ([10]; versus untreated control) | IC50 [11] [µM] | IC50 [12] [µM]
Cc1cc(C)c(C(=O)NCc2nn(CN3CCN(c4ccc([N+](=O)[O-])cc4)CC3)c(=S)n2-c2ccccc2)c(S)n1 [Compound 8] | >>1 ^c | 142 ± 6.3 | >>1 ^c | 321 ± 6.8 | >>1 ^c | 84.3 ± 6.8 | Non-toxic ^b | >>1 ^c | 178 ± 5.3 | >>1 ^c | 306 ± 4.9 | – | – | – | – | – | – | – | –
Cc1cc(C)c(C(=O)NCc2nn(CN3CCN(c4ccc([N+](=O)[O-])cc4)CC3)c(=S)n2C)c(S)n1 [Compound 10, 4,6-dimethyl-N-[(4-methyl-5-thioxo-2-{[4-(4-nitrophenyl)piperazinyl]methyl}-4,5-dihydro-1H-1,2,4-triazol-3-yl)methyl]-2-sulfanylpyridine-3-carboxamide] | >>1 ^c | 212 ± 3.7 | >>1 ^c | 210 ± 3.3 | >>1 ^c | 87.2 ± 5.2 | Non-toxic ^b | >>1 ^c | 148 ± 3.7 | >>1 ^c | 176 ± 6.4 | – | – | – | – | – | – | – | –
O=C(O)c1cn(C2CC2)c2cc(N3CCN(Cc4c(O)ccc5ccccc45)CC3)c(F)cc2c1=O [V] | – | – | – | – | – | – | – | – | – | – | – | 0.97 | – | – | – | – | – | – | –
O=c1[nH]cc(F)c(=O)[nH]1 [Compound 5-FU, 5-fluorouracil, reference compound] | 0.55 | 111 ± 3.5 | 0.27 | 226 ± 2.7 | 0.36 | 170 ± 3.7 | – | 0.85 | 72.2 ± 1.8 | 0.14 | 428.5 ± 2.7 | – | 61.6 ± 3.7 | – | – | – | – | – | –
COc1cccc2c1C(=O)c1c(O)c3c(c(O)c1C2=O)C[C@@](O)(C(=O)CO)C[C@@H]3O[C@H]1C[C@H](N)[C@H](O)[C@H](C)O1 [Doxorubicin, doxorubicin] | – | – | – | – | – | – | – | – | – | – | – | – | – | 7.62 ± 0.17 | 4.23 | 0.92 ± 0.23 | 30.67 | – | –
Cc1ccc(N2CCN(Cn3nc(CNC(=O)c4c(C)cc(C)nc4S)n(C)c3=S)CC2)cc1 [Compound 11] | 2.28 | 119 ± 3.4 | 1.06 | 255 ± 4.8 | 4.69 | 57.7 ± 4.8 | – | 1.98 | 137 ± 5.7 | 1.12 | 242 ± 4.1 | – | 271 ± 7.1 | – | – | – | – | – | –
Cc1cc(C)c(C(=O)NCc2nn(CN3CCN(c4ccc([N+](=O)[O-])cc4)CC3)c(=S)n2C(C)C)c(S)n1 [Compound 13] | 3.63 | 120 ± 8.5 | 1.04 | 419 ± 6.2 | 2.98 | 146 ± 3.6 | – | 2.26 | 193 ± 3.7 | 1.11 | 393 ± 7.4 | – | 436.1 ± 2.7 | – | – | – | – | – | –
Cc1cc(C)c(C(=O)NCc2nn(CN3CCN(c4cccc(Cl)c4)CC3)c(=S)n2C(C)C)c(S)n1 [Compound 12, 4,6-dimethyl-N-[(4-(propan-2-yl)-5-thioxo-2-{[4-(3-chlorophenyl)piperazinyl]-methyl}-4,5-dihydro-1H-1,2,4-triazol-3-yl)methyl]-2-sulfanylpyridine-3-carboxamide] | 1.30 | 263 ± 5.7 | 0.70 | 487 ± 5.9 | 1.39 | 247 ± 4.9 | – | 0.77 | 445.9 ± 2.3 | 0.73 | 471.2 ± 3.7 | – | 342.5 ± 3.4 | – | – | – | – | – | –
Nn1c(Sc2c(O)c3ccccc3oc2=O)nnc1-c1ccncc1 [II] | – | – | – | – | – | – | – | – | – | – | – | – | – | – | – | – | – | 1.93 | –
Cc1cc(C)c(C(=O)NCc2nn(CN3CCN(c4ccccc4)CC3)c(=S)n2-c2ccccc2)c(S)n1 [Compound 4] | 1.68 | 141 ± 2.5 | 1.17 | 201 ± 4.1 | 1.78 | 133 ± 2.7 | – | 1.18 | 201 ± 4.6 | 1.26 | 187.6 ± 1.6 | – | 236 ± 3.5 | – | – | – | – | – | –
Cc1cc(C)c(C(=O)NCc2nn(CN3CCN(c4cccc(Cl)c4)CC3)c(=S)n2C)c(S)n1 [Compound 9, 4,6-dimethyl-N-[(4-methyl-5-thioxo-2-{[4-(3-chlorophenyl)piperazinyl]methyl}-4,5-dihydro-1H-1,2,4-triazol-3-yl)methyl]-2-sulfanylpyridine-3-carboxamide] | >>1 ^c | 231 ± 7.1 | >>1 ^c | 260 ± 4.1 | >>1 ^c | 88.6 ± 7.9 | Non-toxic ^b | >>1 ^c | 152 ± 2.7 | >>1 ^c | 253 ± 5.7 | – | – | – | – | – | – | – | –
CN1CCN(Cn2nc(-c3ccncc3)n(-c3ccc(Br)cc3)c2=S)CC1 [VIII] | – | – | – | – | – | – | – | – | – | – | – | – | – | – | – | – | – | – | 0.021

From paper PMC12294558, “New 1,2,4-Triazole Derivatives with a N-Mannich Base Structure Based on a 4,6-Dimethylpyridine Scaffold as Anticancer Agents: Design, Synthesis, Biological Evaluation, and Molecular Modeling” (International Journal of Molecular Sciences, 2025)
